Experimental data reported in US6656710B2, “Process for the production of amino acids using racemase and acylase” (priority 2000, dated 2003).

Legend:
Assay type in all cases: biochemical
[1] = system: N-acetylamino acid racemase (AAR) from Amycolatopsis orientalis subsp. lurida; experiment: Racemase activity assay of recombinant N-acetylamino acid racemase (polarimeter); conditions: substrate 25 mM, Tris/HCl 50 mM pH 8.0, cobalt chloride 6 mM, ca. 150 μg AAR, 30° C., 3 to 12 hours, λ=365 nm
Description: Detection of the racemase activity of a recombinant N-acetylamino acid racemase AAR enzyme The substrate spectrum of the N-acetylamino acid racemase (AAR) from Amycolatopsis orientalis subsp. lurida was tested with the enzyme assay described herein below. The composition of the assay was as follows: [table] Enantiomer-pure amino acid derivatives were used in the assay and the formation of the corresponding racemate was followed using a polarimeter (Perkin-Elmer 241). The incubation was carried out at 30° C. (heatable cell) for 3 to 12 hours. The measurements were made at a wavelength of λ=365 nm.

[2] = system: L-acylase from Aspergillus oryzae; experiment: L-acylase activity assay, producing L-Met from Moc-L-Met; conditions: Moc-L-Met 25 mM, Tris/HCl 50 mM pH 8.0, cobalt chloride 6 mM, L-Acylase 2.0 U, final volume 200 μL; L-Met detected by RP HPLC
Description: Moc-L-Met was used in an assay to determine the activity of the L-acylase from Aspergillus oryzae. A. Producing L-Met from Moc-L-Met [table] D-Met and L-Met were detected by reverse phase HPLC (RP 18). The unit data for the enzymes refer to specific activity with N-Ac-L-Met and N-Ac-D-Met as substrate.

[3] = system: D-acylase from Aspergillus oryzae in the presence of an N-acetylamino acid racemase (AAR) from Amycolatopsis orientalis subsp. lurida; experiment: D-acylase activity assay in the presence of AAR, producing D-Met from Moc-L-Met; conditions: Moc-L-Met 25 mM, Tris/HCl 50 mM pH 8.0, cobalt chloride 6 mM, D-Acylase 2.4 U, AAR 0.4 U, final volume 200 μL; D-Met detected by RP HPLC
Description: B. Producing D-Met from Moc-L-Met Moc-L-Met was used in an assay to determine the activity of the D-acylase from Aspergillus oryzae in the presence of an N-acetylamino acid racemase (AAR) from Amycolatopsis orientalis subsp. lurida. [table] D-Met and L-Met were detected by reverse phase HPLC (RP 18). The unit data for the enzymes refer to specific activity with N-Ac-L-Met and N-Ac-D-Met as substrate.

- Specific Activity of the AAR [1]: 42 mU/mg
- Volume activity [2]: 1.4 U/ml
- Volume activity [3]: 0.6 U/ml
Structure (SMILES): COC(=O)N[C@@H](CCSC)C(=O)O [N-methyloxycarbonyl-L-Met]
